Data from patent US20120088746A1, “AMIDE DERIVATIVES AS ION-CHANNEL LIGANDS AND PHARMACEUTICAL COMPOSITIONS AND METHODS OF USING THE SAME” (PFIZER INC., priority 2006, published 2012).
Counter-ions that a name gives are not always drawn.

Each compound was assayed against human VR1 (Homo sapiens, UniProt Q8NER1) (assay: Acid stimulation assay (acid-induced intracellular calcium change, FDSS 6000)). Conditions: final assay buffer pH5.8, 15 min pre-incubation, read-out: IC50 (nM) Low pH.
Type: cell-based
Text: VR1 antagonistic activity can be determined by the Ca^2+ imaging assay using human VR1 highly expressing cells. The cells that highly express human VR1 receptors are obtainable from several different conventional methods. The one standard method is cloning from human Dorsal Root Ganglion (DRG) or kidney according to the methods such as described in the journal article; Nature, 389, pp 816-824, 1997. Alternatively VR1 receptors highly expressing human keratinocytes are also known and published in the journal article (Biochemical and Biophysical Research Communications, 291, pp 124-129, 2002). […] Furthermore, the method to up regulate human VR1 gene, which is usually a silent gene or don't produce detectable level of VR1 receptors, is also available to obtain propriety cells. Such genetic modification method was described in detail; Nat. Biotechnol., 19, pp 440-445, 2001.
The cells that express human VR1 receptors were maintained in culture flask at 37° C. in an environment containing 5% CO2 until use in the assay. The intracellular Ca^2+ imaging assay to determine VR1 antagonistic activities were done by following procedures.
The culture medium was removed from the flask and fura-2/AM fluorescent calcium indicator was added to the flask at a concentration of 5 μM in the medium. The flask was placed in CO2 incubator and incubated for 1 hour. Then the cells expressing the human VR1 receptors were detached from the flask follow by washing with phosphate buffer saline, PBS(−) and re-suspended in assay buffer. The 80 tit of aliquot of cell suspension (3.75×10^5 cells/ml) was added to the assay plate and the cells were spun down by centrifuge (950 rpm, 20° C., 3 minutes).
(§1) The Acid-induced changes in the intracellular calcium concentration were monitored using FDSS 6000 (Hamamatsu Photonics, Japan), a fluorometric imaging system. The cell suspension in resting buffer (HBSS supplemented with 10 mM HEPES, pH 7.4) were pre-incubated with varying concentrations of the test compounds or resting buffer (buffer control) for 15 minutes at room temperature under the dark condition. The cells were automatically added the stimulating solution (HBSS supplemented with MES, final assay buffer pH5.8) by the FDSS 6000.
as §1, with “7.4) was” for “7.4) were”, “under” for “under the”, “dark conditions.” for “dark condition.”, “added to” for “added”

Sequence of human VR1 (Q8NER1 whole entry): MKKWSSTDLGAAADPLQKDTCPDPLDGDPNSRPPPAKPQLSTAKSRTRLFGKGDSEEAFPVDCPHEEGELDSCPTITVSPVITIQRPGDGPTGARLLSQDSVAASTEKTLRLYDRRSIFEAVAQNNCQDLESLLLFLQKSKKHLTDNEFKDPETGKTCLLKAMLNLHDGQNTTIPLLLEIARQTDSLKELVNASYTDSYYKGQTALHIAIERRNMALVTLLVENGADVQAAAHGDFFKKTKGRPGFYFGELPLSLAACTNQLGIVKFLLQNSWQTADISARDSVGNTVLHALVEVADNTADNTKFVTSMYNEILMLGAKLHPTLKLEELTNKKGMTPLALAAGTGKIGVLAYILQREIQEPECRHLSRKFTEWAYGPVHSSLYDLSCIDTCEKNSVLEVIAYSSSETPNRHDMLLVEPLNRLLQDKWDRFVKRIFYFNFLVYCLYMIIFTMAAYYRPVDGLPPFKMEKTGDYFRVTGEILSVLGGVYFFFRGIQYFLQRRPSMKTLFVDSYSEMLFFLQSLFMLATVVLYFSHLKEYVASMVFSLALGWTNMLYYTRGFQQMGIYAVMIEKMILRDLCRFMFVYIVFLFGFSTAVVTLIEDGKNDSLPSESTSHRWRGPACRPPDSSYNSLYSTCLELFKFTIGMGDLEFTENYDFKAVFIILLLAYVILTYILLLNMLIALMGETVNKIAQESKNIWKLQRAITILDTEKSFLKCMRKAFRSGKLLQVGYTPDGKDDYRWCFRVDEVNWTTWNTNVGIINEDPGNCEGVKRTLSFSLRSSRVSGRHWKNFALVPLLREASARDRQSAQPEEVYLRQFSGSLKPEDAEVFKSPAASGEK

Point of comparison: C[C@@H](NC(=O)c1cnc2cc(C(F)(F)F)ccc2c1)c1cc(F)c(NS(C)(=O)=O)c(F)c1 [Example 27, N-((1R)-1-{3,5-DIFLUORO-4-[(METHYLSULFONYL)AMINO]PHENYL}ETHYL)-7-(TRIFLUOROMETHYL)QUINOLINE-3-CARBOXAMIDE], IC50 105 nM. Against it:
- Cc1cc([C@@H](C)NC(=O)c2ccc3cc(C(C)(C)C)ccc3c2)ccc1NS(C)(=O)=O [Example 1, 6-TERT-BUTYL-N-((1R)-1-{3-METHYL-4-[(METHYLSULFONYL)AMINO]PHENYL}ETHYL)-2-NAPHTHAMIDE] — 35-fold lower, 3 nM
- Cc1nc([C@@H](C)NC(=O)c2ccc3cc(C(C)(C)C)ccc3c2)ccc1NS(C)(=O)=O [Example 2, 6-TERT-BUTYL-N-((1R)-1-{6-METHYL-5-[(METHYLSULFONYL)AMINO]PYRIDIN-2-YL}ETHYL)-2-NAPHTHAMIDE] — 26-fold lower, 4 nM
- C[C@@H](NC(=O)c1ccc2cc(C(F)(F)F)ccc2n1)c1cc(F)c(NS(C)(=O)=O)c(F)c1 [Example 3, ((1R)-1-{3,5-DIFLUORO-4-[(METHYLSULFONYL)AMINO]PHENYL}ETHYL)-6-(TRIFLUORO-METHYL)QUINOLINE-2-CARBOXAMIDE] — 26-fold lower, 4 nM
- Cc1cc([C@@H](C)NC(=O)c2cnc3cc(C(F)(F)F)ccc3c2)ccc1NS(C)(=O)=O [Example 4, (1R)-1-{3-METHYL-4-[(METHYLSULFONYL)AMINO]PHENYL}ETHYL)-7-(TRIFLUOROMETHYL)QUINOLINE-3-CARBOXAMIDE] — within 1.5-fold, 100 nM
- C[C@@H](NC(=O)c1ccc2cc(C(C)(C)C)ccc2n1)c1cc(F)c(NS(C)(=O)=O)c(F)c1 [Example 7, 6-TERT-BUTYL-N-((1R)-1-{3,5-DIFLUORO-4-[(METHYLSULFONYL)AMINO]PHENYL}-ETHYL)QUINOLINE-2-CARBOXAMIDE] — 100-fold lower, 1 nM
- Cc1cc([C@@H](C)NC(=O)c2ccc3cc(C(C)C)ccc3n2)ccc1NS(C)(=O)=O [Example 9, 6-ISOPROPYL-N-((1R)-1-{3-METHYL-4-[(METHYLSULFONYL)AMINO]PHENYL}ETHYL)-QUINOLINE-2-CARBOXAMIDE] — 6.8-fold higher, 714 nM
- Cc1cc([C@@H](C)NC(=O)c2cnc3cc(C(F)(F)F)ccc3c2C)ccc1NS(C)(=O)=O [Example 11, 4-METHYL-N-((1R)-1-{3-METHYL-4-[(METHYLSULFONYL)AMINO]PHENYL}ETHYL)-7-(TRIFLUOROMETHYL)QUINOLINE-3-CARBOXAMIDE] — 2.3-fold higher, 240 nM
- Cc1cc([C@@H](C)NC(=O)c2ccc3cc(Br)ccc3n2)ccc1NS(C)(=O)=O [Example 12, 6-BROMO-N-((1R)-1-{3-METHYL-4-[(METHYLSULFONYL)AMINO]PHENYL}ETHYL)-QUINOLINE-2-CARBOXAMIDE] — 4.2-fold higher, 444 nM
- Cc1cc([C@@H](C)NC(=O)c2ccc3cc(C(C)(C)C)ccc3c2)c(F)cc1NS(C)(=O)=O [Example 13, 6-TERT-BUTYL-N-((1R)-1-{2-FLUORO-5-METHYL-4-[(METHYLSULFONYL)AMINO]PHENYL}-ETHYL)-2-NAPHTHAMIDE] — within 1.5-fold, 127 nM
- Cc1cc([C@@H](C)NC(=O)c2ccc3cc(C(C)(C)C)ccc3n2)c(F)cc1NS(C)(=O)=O [Example 14, 6-TERT-BUTYL-N-((1R)-1-{2-FLUORO-5-METHYL-4-[(METHYLSULFONYL)AMINO]PHENYL}-ETHYL)QUINOLINE-2-CARBOXAMIDE] — 2.7-fold higher, 288 nM
- C[C@@H](NC(=O)c1ccc2nc(C(C)(C)C)ccc2c1)c1cc(F)c(NS(C)(=O)=O)c(F)c1 [Example 15, 2-TERT-BUTYL-N-((1R)-1-{3,5-DIFLUORO-4-[(METHYLSULFONYL)AMINO]PHENYL}ETHYL)-QUINOLINE-6-CARBOXAMIDE HYDROCHLORIDE] — 4.4-fold lower, 24 nM
- Cc1cc([C@@H](C)NC(=O)c2ccc3cc(C(C)(C)O)ccc3n2)ccc1NS(C)(=O)=O [Example 16] — within 1.5-fold, 71 nM
- Cc1cc([C@@H](C)NC(=O)c2ccc3cc(Br)ccc3c2)ccc1NS(C)(=O)=O [Example 17, 6-BROMONAPHTHALENE-2-CARBOXYLIC ACID [(R)-1-(4-METHANESULFONYLAMINO-3-METHYLPHENYL)ETHYL]AMIDE] — 7.5-fold lower, 14 nM
- Cc1cc([C@@H](C)NC(=O)c2ccc3cc(F)ccc3c2)ccc1NS(C)(=O)=O [Example 18, 6-FLUORONAPHTHALENE-2-CARBOXYLIC ACID [(R)-1-(4-METHANESULFONYL-AMINO-3-METHYLPHENYL)ETHYL]AMIDE] — within 1.5-fold, 83 nM
- Cc1cc([C@@H](C)NC(=O)c2ccc3ccccc3c2)ccc1NS(C)(=O)=O [Example 19, NAPHTHALENE-2-CARBOXYLIC ACID [(R)-1-(4-METHANESULFONYLAMINO-3-METHYLPHENYL)ETHYL]AMIDE] — 1.7-fold lower, 63 nM
- COc1ccc2cc(C(=O)N[C@H](C)c3ccc(NS(C)(=O)=O)c(C)c3)ccc2c1 [Example 20, 6-METHOXYNAPHTHALENE-2-CARBOXYLIC ACID [(R)-1-(4-METHANESULFONYL-AMINO-3-METHYLPHENYL)ETHYL]AMIDE] — 13-fold lower, 8 nM
- Cc1cc([C@@H](C)NC(=O)c2ccc3cc(N4CCCC4)ccc3c2)ccc1NS(C)(=O)=O [Example 21, 6-PYRROLIDIN-1-YL-NAPHTHALENE-2-CARBOXYLIC ACID [(R)-1-(4-METHANESULFONYL-AMINO-3-METHYLPHENYL)ETHYL]AMIDE] — 2.4-fold lower, 44 nM
- Cc1cc([C@@H](C)NC(=O)c2ccc3cc(C4CC4)ccc3c2)ccc1NS(C)(=O)=O [Example 22, 6-CYCLOPROPYLNAPHTHALENE-2-CARBOXYLIC ACID [(R)-1-(4-METHANESULFONYL-AMINO-3-METHYLPHENYL)ETHYL]AMIDE] — 35-fold lower, 3 nM
- Cc1cc([C@@H](C)NC(=O)c2cc3ccc(Cl)cc3nc2C)ccc1NS(C)(=O)=O [Example 23, 7-CHLORO-2-METHYL-QUINOLINE-3-CARBOXYLIC ACID [(R)-1-(4-METHANESULFONYL-AMINO-3-METHYLPHENYL)ETHYL]AMIDE] — 3.6-fold higher, 379 nM
- CC(=O)c1ccc2nc(C(=O)N[C@H](C)c3ccc(NS(C)(=O)=O)c(C)c3)ccc2c1 [Example 28, 6-ACETYL-N-((1R)-1-{3-METHYL-4-[(METHYLSULFONYL)AMINO]PHENYL}ETHYL)-QUINOLINE-2-CARBOXAMIDE] — 1.8-fold higher, 187 nM
- Cc1cc([C@@H](C)NC(=O)c2cnc3ccc(C(C)(C)C)cc3c2)ccc1NS(C)(=O)=O [Example 29, 6-TERT-BUTYL-N-((1R)-1-{3-METHYL-4-[(METHYLSULFONYL)AMINO]PHENYL}ETHYL)-QUINOLINE-3-CARBOXAMIDE] — 2.2-fold higher, 231 nM
- CC(C)c1ccc2cc(C(=O)N[C@H](C)c3cc(F)c(NS(C)(=O)=O)c(F)c3)ccc2n1 [Example 31, N-((1R)-1-{3,5-DIFLUORO-4-[(METHYLSULFONYL)AMINO]PHENYL}ETHYL)-2-ISOPROPYL-QUINOLINE-6-CARBOXAMIDE] — 2.2-fold lower, 47 nM
- Cc1cc([C@@H](C)NC(=O)c2ccc3nc(C(F)(F)F)ccc3c2)c(F)cc1NS(C)(=O)=O [Example 32, N-((1R)-1-{2-FLUORO-5-METHYL-4-[(METHYLSULFONYL)AMINO]PHENYL}ETHYL)-2-(TRIFLUOROMETHYL)QUINOLINE-6-CARBOXAMIDE] — 18-fold lower, 6 nM
- Cc1cc([C@@H](C)NC(=O)c2cnc3cc(C(C)(C)C)ccc3c2)ccc1NS(C)(=O)=O [Example 33, 7-TERT-BUTYL-N-((1R)-1-{3-METHYL-4-[(METHYLSULFONYL)AMINO]PHENYL}ETHYL)-QUINOLINE-3-CARBOXAMIDE] — 1.9-fold lower, 56 nM
- C[C@@H](NC(=O)c1cnc2cc(C(F)(F)F)ccc2c1)c1ccc(NS(C)(=O)=O)c(F)c1 [Example 34, N-((1R)-1-{3-FLUORO-4-[(METHYLSULFONYL)AMINO]PHENYL}ETHYL)-7-(TRIFLUORO-METHYL)QUINOLINE-3-CARBOXAMIDE] — 4-fold lower, 26 nM
- Cc1cc([C@@H](C)NC(=O)c2ccc3nc(C(C)C)ccc3c2)ccc1NS(C)(=O)=O [Example 35, 2-ISOPROPYL-N-((1R)-1-{3-METHYL-4-[(METHYLSULFONYL)AMINO]PHENYL}ETHYL)-QUINOLINE-6-CARBOXAMIDE] — 21-fold lower, 5 nM
- CC(C)c1ccc2cc(C(=O)N[C@H](C)c3cc(F)c(NS(C)(=O)=O)c(F)c3)cnc2c1 [Example 39, N-((1R)-1-{3,5-DIFLUORO-4-[(METHYLSULFONYL)AMINO]PHENYL}ETHYL)-7-ISOPROPYL-QUINOLINE-3-CARBOXAMIDE] — 8.1-fold lower, 13 nM
- Cc1cc([C@@H](C)NC(=O)c2ccc3cc(C(C)(C)C)ccc3c2)ncc1NS(C)(=O)=O [Example 40, 6-TERT-BUTYL-N-((1R)-1-{4-METHYL-5-[(METHYLSULFONYL)AMINO]PYRIDIN-2-YL}ETHYL)-2-NAPHTHAMIDE] — 3.4-fold lower, 31 nM
- C[C@@H](NC(=O)c1cnc2cc(C(C)(C)C)ccc2c1)c1ccc(NS(C)(=O)=O)cc1 [Example 41, 7-TERT-BUTYL-N-((1R)-1-{4-[(METHYLSULFONYL)AMINO]PHENYL}ETHYL)QUINOLINE-3-CARBOXAMIDE] — 3.6-fold lower, 29 nM
